Legend:
[1] = test system: doxorubicin-induced aged C57BL6J mice; assay: Bone marrow function (CAFC assay) in doxorubicin-aged mice, Example 22-12, Table 41; type: in vivo, mouse; settings: bone marrow of doxorubicin-induced aged mice, 5 weeks of culture; untreated 1.8 (±0.1)
Description: Eight-week-old male C57BL6J mice (KRIBB Laboratory Animal Resource Center) were acclimated to the experimental environment for one week. Afterwards, the anticancer agent doxorubicin was administered intraperitoneally at a concentration of 10 mg/kg, inducing aging for more than 10 days. The aging-induced mice were randomly assigned to experimental and control groups. LX-403 was mixed with a 10% ethanol solution of PEG400 and administered orally at a concentration of 25 mg/kg or intradermally at a concentration of 1 μM for 21 days. LX-1801 was mixed in distilled water with 4% DMSO, 30% PEG300, and 5% Tween80 and administered intradermally at a concentration of 0.4 μM daily for 21 days. LX-2001 was mixed in PBS and administered intradermally at a concentration of 2 μM daily for 21 days. LX-2002 was mixed in distilled water with 4% DMSO, 30% PEG300, and 5% Tween80 and administered intradermally at a concentration of 2 μM daily for 21 days. […] LX-2005 was mixed in distilled water with 4% DMSO, 30% PEG300, and 5% Tween80 and administered intradermally at a concentration of 90 μM daily for 21 days. LX-2007 was mixed in distilled water with 4% DMSO, 30% PEG300, and 5% Tween80 and administered intradermally at a concentration of 90 μM daily for 21 days. […] LX-3002 was mixed in distilled water with 4% DMSO, 30% PEG300, and 5% Tween80 and administered orally at a concentration of 10 mg/kg daily for 21 days. […] LX-5411 was mixed in 5% phosphate-buffered saline (PBS) and administered orally at a concentration of 10 mg/kg daily for 21 days or intradermally at a concentration of 3 μM. LX-5701 was mixed in PBS and administered orally at a concentration of 360 mg/kg daily for 21 days. LX-6807 was mixed in saline and administered intraperitoneally at a concentration of 1 mg/kg daily for 21 days. The control group received only the solution in the same volume. After the end of drug administration, the methods described in each example below were performed.
Damage to the immune system, including the bone marrow, after chemotherapy is known to induce inflammatory responses and contribute to drug resistance and adverse effects. To analyze the function of bone marrow hematopoietic cells in mice induced to age by the anticancer agent, a cobblestone-area-forming-cell (CAFC) assay was performed. Specifically, bone marrow cells (BMCs) were collected from the femurs and tibias of mice, and BM-MNCs (mono-nuclear cells) were cultured in MethoCult™ GF M3434 methylcellulose medium (Stem Cell™ Technologies Inc, Canada). FBMD-1 stromal cells were seeded in each well of a 96-well plate to prepare a support cell stromal layer. […] After 5 weeks of culture, CAFCs were counted using an optical microscope.

[2] = test system: obesity-induced aged C57BL6J mice; assay: Diabetes and complications (HbA1c, wound size, VEGF mRNA) in obesity-aged mice, Example 23-6, Table 46; type: in vivo, mouse; settings: for VEGF mRNA: eye, qRT-PCR, amount after aging calculated as 100%; for diabetic foot ulcer size: full-thickness 5 mm×5 mm wound, untreated 4.2 (±0.4); for diabetic foot ulcer size / HbA1c: obesity-induced diabetes mice; for HbA1c: serum, daily for 21 days, untreated 6.9 (±1.5)
Description: 15-week-old male C57BL6J mice (The Jackson Laboratory) were induced to obesity by a high-fat diet using the same method as in Example 9-1 WO2023-085787 A1. After acclimation to the experimental environment for one week, the mice were randomly assigned to experimental and control groups. […] LX-3002 was mixed in distilled water with 4% DMSO, 30% PEG300, and 5% Tween80 and administered orally at a concentration of 10 mg/kg daily for 21 days. LX-5701 was mixed in PBS and administered orally at a concentration of 360 mg/kg daily for 21 days. LX-6807 was mixed in saline and administered intraperitoneally at a concentration of 1 mg/kg daily for 21 days. The control group received only the solution in the same volume. After the end of drug administration, the methods described in each example below were performed.
Serum collected from mice using the same method as in Example 7-5 of WO2023-085787 A1 was used to measure glycated hemoglobin (HbA1c), a marker of hyperglycemia and diabetes. Furthermore, the improvement in diabetic foot ulcers and diabetic retinopathy, major complications of diabetes, was analyzed. Specifically, a diabetic foot ulcer model was created by creating a full-thickness 5 mm×5 mm wound on the left dorsal skin of mice induced with obesity-induced diabetes. The wound size was measured under untreated and treated conditions with the test compound, and the healing effect was analyzed. In addition, the mRNA amount of VEGF, a marker of angiogenesis in retinopathy, was measured from the eye using qRT-PCR as described in Example 7-2 of WO2023-085787 A1. The qRT-PCR results were calculated as 100% for the amount of each factor after aging was induced, and compared with the amount of each factor after treatment with the test compound.

senescent cells = assay: Viability of senescent cells (CellTiter-Glo), Example 17, Table 13; settings: Homo sapiens, read-out: Survival (%)
Description: Cells induced to undergo senescence by doxorubicin treatment were treated with test compound at designated concentrations and measured using the CellTiter-Glo Luminescent Cell Viability Assay (Promega).

[3] = test system: doxorubicin-induced aged C57BL6J mice; assay: Fatigue, weakness and weight loss in doxorubicin-aged mice, Example 22-7, Table 36; type: in vivo, mouse; settings: for Grip Sterenght Test Strength / Open Field Test Time in Center / Wire Hanging Test Time: amount after aging calculated as 100%; for Mean Body Weight: untreated 20.8 (±1.7)
Description: Eight-week-old male C57BL6J mice (KRIBB Laboratory Animal Resource Center) were acclimated to the experimental environment for one week. […] The aging-induced mice were randomly assigned to experimental and control groups. […] The control group received only the solution in the same volume. After the end of drug administration, the methods described in each example below were performed.
The amount of each evaluation after aging was calculated as 100% and compared with the amount of each evaluation after test compound treatment.

SHR/Izm rats = assay: Geriatric hypertension in SHR/Izm rats (p16 mRNA, blood pressure), Example 30, Table 54; type: in vivo, rat; settings: for Blood pressure: tail cuff, untreated 195 (±13.3); for p16 mRNA: thoracic aorta, untreated 100%
Description: Ten-week-old male SHR/Izm rats (SLC), a model of essential hypertension, were acclimated to the experimental environment for one week. […] The control group received only the solution in the same volume. After drug administration, the blood pressure of the experimental animals was measured, and RNA was extracted from the thoracic aorta in the same manner as in Example 7-2 of WO2023-085787 A1. The synthesized cDNA was used for qRT-PCR. Blood pressure measurements were performed three times using a blood pressure monitor (IITC) after the animals were allowed to rest for approximately 10 minutes in a measuring holder with a cuff attached to the caudal vein. […] The mRNA levels after aging were calculated as 100% and compared with the mRNA levels of p16 after treatment with the test compound.

| Compound | CAFCs/10^5 BMCs [1] | VEGF mRNA [2] | diabetic foot ulcer size [2] | HbA1c [2] | viability at 1.1 µM (senescent cells) [%] | viability at 10 µM (senescent cells) [%] | viability at 30 µM (senescent cells) [%] | Grip Sterenght Test Strength [3] | Open Field Test Time in Center [3] | Wire Hanging Test Time [3] | Mean Body Weight [3] | Blood pressure (SHR/Izm rats) | p16 mRNA (SHR/Izm rats) |
| --- | --- | --- | --- | --- | --- | --- | --- | --- | --- | --- | --- | --- | --- |
| Cc1cccc([C@H](C)c2cnc[nH]2)c1C [LX-6807, Dexmedetomidine] | 3.5 (±0.2) CAFCs/10^5 BMCs | 68 (±1.6) % | 3.3 (±0.5) mm | 5.4 (±0.5) % | 95.1 | 42.5 | 6.9 | 137 (±6.3) % | 249 (±34.1) % | 209 (±14.5) % | 23.2 (±2.7) g | 157.8 (±19.3) mmHg | 66 (±5.0) % |
| O=C1C2CCN(CC2)C1CNC(=O)C(F)(F)F (centres unmarked) [LX-5701] | 3.3 (±0.2) CAFCs/10^5 BMCs | 61 (±10.6) % | 3.0 (±0.9) mm | 5.0 (±1.3) % | 91.4 | 19.3 | – | 117 (±6.9) % | 192 (±24.3) % | 139 (±8.2) % | 23.0 (±2.8) g | 159.8 (±15.5) mmHg | 73 (±5.2) % |
| Tocofersolan [LX-3001] | 2.1 (±0.2) CAFCs/10^5 BMCs | 77 (±2.4) % | 3.5 (±0.2) mm | 6.4 (±0.4) % | – | – | – | 120 (±9.3) % | – | 127 (±13.3) % | 21.2 (±1.3) g | 172.9 (±14.6) mmHg | 71 (±3.6) % |
| CCCC\C=C/C=C/C=C\CCCCCCCC(=O)O [LX-2707, Punicic acid] | 2.7 (±0.2) CAFCs/10^5 BMCs | 76 (±4.0) % | 3.4 (±0.3) mm | 6.1 (±0.6) % | – | – | – | 128 (±5.7) % | 232 (±33.6) % | 192 (±12.7) % | 22.4 (±2.1) g | 160.1 (±23.1) mmHg | 64 (±8.5) % |
